Experimental data reported in patent US20070128217A1 (priority 2003, published 2007).

Tests used:
[1] = tested on: antibodies in sera from SARS patients (sera 1a, 1b, 2, 6, 37, 62, London, SARS-yellow, SARS-green); format: binding, human; parameters: Binding of serum 6 to linear peptides of protein X1 of SARS-CoV Urbani / Binding of serum 37 to linear peptides of protein X1 of SARS-CoV Urbani / Binding of serum 6 to looped/cyclic peptide (PEPSCAN-ELISA) / Binding of serum 37 to looped/cyclic peptide (PEPSCAN-ELISA) / Binding of serum 37 to looped/cyclic peptides of protein X1 of SARS-CoV Urbani / Binding of serum 6 to linear peptides of protein X2 / Binding of serum 37 to linear peptides of protein X2 / Binding of serum 37 to looped/cyclic peptides of protein X2 of SARS-CoV Urbani / Binding of serum 6 to linear peptides of protein M of SARS-CoV Urbani / Binding of serum 37 to linear peptides of protein M of SARS-CoV Urbani / Binding of serum 6 to looped/cyclic peptides of protein M of SARS-CoV Urbani / Binding of serum 37 to looped/cyclic peptides of protein M of SARS-CoV Urbani / Binding of serum 6 to linear peptides of protein X3 of SARS-CoV Urbani / Binding of serum 37 to linear peptides of protein X3 of SARS-CoV Urbani / Binding of serum 37 to looped/cyclic peptides of protein X3 of SARS-CoV Urbani / Binding of serum 6 to linear peptides of protein X4 of SARS-CoV Urbani / Binding of serum 37 to linear peptides of protein X4 of SARS-CoV Urbani / Binding of serum 37 to looped/cyclic peptides of protein X4 of SARS-CoV Urbani / Binding of serum 6 to linear peptides of protein X5 of SARS-CoV Urbani / Binding of serum 37 to linear peptides of protein X5 of SARS-CoV Urbani / Binding of serum 37 to looped/cyclic peptides of protein X5 of SARS-CoV Urbani / Binding of serum 6 to linear peptides of protein N of SARS-CoV Urbani / Binding of serum 37 to linear peptides of protein N of SARS-CoV Urbani / Binding of serum 6 to linear peptide (PEPSCAN-ELISA) / Binding of serum 1a to looped/cyclic peptides of protein N of SARS-CoV Urbani / Binding of serum 1b to looped/cyclic peptides of protein N of SARS-CoV Urbani / Binding of serum 2 to looped/cyclic peptides of protein N of SARS-CoV Urbani / Binding of serum 6 to looped/cyclic peptides of protein N of SARS-CoV Urbani / Binding of serum 37 to looped/cyclic peptides of protein N of SARS-CoV Urbani / Binding of serum 62 to looped/cyclic peptides of protein N of SARS-CoV Urbani / Binding of serum London to looped/cyclic peptides of protein N of SARS-CoV Urbani / Binding of serum SARS-green to looped/cyclic peptides of protein N of SARS-CoV Urbani: unit not given here
[2] = tested on: control sera (pooled serum of ten healthy LUMC hospital workers; commercial negative donor pooled serum from the Dutch bloodbank); format: binding, human; parameters: Binding of Control serum LUMC to linear peptides / Binding of Control serum Blood-bank to linear peptides / Binding of Control serum LUMC to looped peptides / Binding of Control Serum Blood-Bank to Looped peptides / Binding of Control serum LUMC to linear peptides of the protein M of SARS-CoV Urbani / Binding of Control serum Blood-bank to linear peptides of the protein M of SARS-CoV Urbani / Binding of Control serum LUMC to looped peptides of the protein M of SARS-CoV Urbani / Binding of Control Serum Blood-Bank to Looped peptides of the protein M of SARS-CoV Urbani: unit not given here
[3] = tested on: rabbit serum obtained by immunizing a rabbit with the SARS-CoV strain Frankfurt 1; format: binding; parameters: Binding of a rabbit serum to linear peptides / Binding of a rabbit serum to looped peptides / Rabbit serum linear peptides / Rabbit serum looped peptides / Binding of a rabbit serum to linear peptides of protein N of SARS-CoV Urbani (Rabbit serum linear peptides) / Binding of a rabbit serum to looped/cyclic peptides of protein N of SARS-CoV Urbani (Rabbit serum looped peptides): unit not given here
[4] = tested on: recombinant human anti-SARS-CoV antibody 03-018; format: binding; parameters: Binding of antibody 03-018 to linear peptides of the N protein of SARS-CoV Urbani / Binding of antibody 03-018 to looped/cyclic peptides of the N protein of SARS-CoV Urbani: unit not given here

| Sequence | Binding of serum 1a to linear peptides of protein N of SARS-CoV Urbani [1] | Binding of serum 1a to looped/cyclic peptides of protein N of SARS-CoV Urbani [1] | Binding of serum 1b to linear peptides of protein N of SARS-CoV Urbani [1] | Binding of serum 1b to looped/cyclic peptides of protein N of SARS-CoV Urbani [1] | Binding of serum 2 to linear peptides of protein N of SARS-CoV Urbani [1] | Binding of serum 2 to looped/cyclic peptides of protein N of SARS-CoV Urbani [1] | Binding of serum 6 to linear peptides of protein N of SARS-CoV Urbani [1] | Binding of serum 6 to looped/cyclic peptides of protein N of SARS-CoV Urbani [1] | Binding of serum 37 to linear peptides of protein N of SARS-CoV Urbani [1] | Binding of serum 37 to looped/cyclic peptides of protein N of SARS-CoV Urbani [1] | Binding of serum 62 to linear peptides of protein N of SARS-CoV Urbani [1] | Binding of serum 62 to looped/cyclic peptides of protein N of SARS-CoV Urbani [1] | Binding of serum London to linear peptides of protein N of SARS-CoV Urbani [1] | Binding of serum London to looped/cyclic peptides of protein N of SARS-CoV Urbani [1] | Binding of serum SARS-green to linear peptides of protein N of SARS-CoV Urbani [1] | Binding of serum SARS-green to looped/cyclic peptides of protein N of SARS-CoV Urbani [1] | Binding of serum SARS-yellow to linear peptides of protein N of SARS-CoV Urbani [1] | Binding of serum SARS-yellow to looped/cyclic peptides of protein N of SARS-CoV Urbani [1] | Binding of antibody 03-018 to linear peptides of the N protein of SARS-CoV Urbani [4] | Binding of antibody 03-018 to looped/cyclic peptides of the N protein of SARS-CoV Urbani [4] | also measured |
| --- | --- | --- | --- | --- | --- | --- | --- | --- | --- | --- | --- | --- | --- | --- | --- | --- | --- | --- | --- | --- | --- |
| FKDNVILLNKHIDAY | 0.2 | 0.5 | 0.1 | 0.3 | 0.2 | 0.5 | 0.2 | 0.3 | 0.6 | 0.8 | 0.6 | 0.8 | 0.5 | 0.5 | 0.2 | 0.2 | 0.7 | 0.5 | 0.1 | 0.2 | Control Serum Blood-Bank Looped peptides [2]: 0.8; Control serum Blood-bank linear peptides [2]: 0.6; Control serum LUMC linear peptides [2]: 0.5; Control serum LUMC looped peptides [2]: 0.8; Binding of a rabbit serum to linear peptides of protein N of SARS-CoV Urbani (Rabbit serum linear peptides) [3]: 0.1; Binding of a rabbit serum to looped/cyclic peptides of protein N of SARS-CoV Urbani (Rabbit serum looped peptides) [3]: 0.5 |
| RNSTPGSSRGNSPAR |  | 0.4 |  | 0.3 |  | 0.4 |  | 0.3 |  | 0.5 |  | 0.5 |  | 0.5 |  | 0.1 |  | 0.5 | 0.1 | 0.2 | Binding of serum 1a to linear peptide (PEPSCAN-ELISA) [1]: 0.6; Binding of serum 1b to linear peptide (PEPSCAN-ELISA) [1]: 0.3; Binding of serum 2 to linear peptide (PEPSCAN-ELISA) [1]: 0.3; Binding of serum 6 to linear peptide (PEPSCAN-ELISA) [1]: 0.2; Binding of serum 37 to linear peptide (PEPSCAN-ELISA) [1]: 0.7; Binding of serum 62 to linear peptide (PEPSCAN-ELISA) [1]: 0.7; Binding of serum London to linear peptide (PEPSCAN-ELISA) [1]: 0.4; Binding of serum SARS-green to linear peptide (PEPSCAN-ELISA) [1]: 0.4; Binding of serum SARS-yellow to linear peptide (PEPSCAN-ELISA) [1]: 0.7; Binding of Control Serum Blood-Bank to Looped peptides [2]: 0.6; Binding of Control serum Blood-bank to linear peptides [2]: 0.9; Binding of Control serum LUMC to linear peptides [2]: 0.8; Binding of Control serum LUMC to looped peptides [2]: 0.7; Recognition of the peptide by the rabbit serum [3]: recognized |
| EELRFPRGQGVPINT | 0.2 | 0.6 | 0.1 | 0.4 | 0.3 | 0.8 | 0.2 | 0.5 | 0.7 | 1.0 | 0.7 | 1.2 | 0.5 | 0.7 | 0.4 | 0.9 | 0.6 | 0.8 | 0.1 | 0.3 | Binding of Control Serum Blood-Bank to Looped peptides [2]: 1.3; Binding of Control serum Blood-bank to linear peptides [2]: 0.8; Binding of Control serum LUMC to linear peptides [2]: 0.8; Binding of Control serum LUMC to looped peptides [2]: 1.1; Binding of a rabbit serum to linear peptides of protein N of SARS-CoV Urbani (Rabbit serum linear peptides) [3]: 0.1; Binding of a rabbit serum to looped/cyclic peptides of protein N of SARS-CoV Urbani (Rabbit serum looped peptides) [3]: 0.6 |
| DAYKTFPPTEPKKDK | 0.3 | 0.2 | 0.2 | 0.1 | 0.3 | 0.2 | 0.3 | 0.1 | 0.8 | 0.3 | 1.1 | 0.2 | 0.6 | 0.2 | 0.4 | 0.0 | 0.7 | 0.1 | 0.1 | 0.2 | Control Serum Blood-Bank Looped peptides [2]: 0.2; Control serum Blood-bank linear peptides [2]: 0.8; Control serum LUMC linear peptides [2]: 0.6; Control serum LUMC looped peptides [2]: 0.2; Binding of a rabbit serum to linear peptides of protein N of SARS-CoV Urbani (Rabbit serum linear peptides) [3]: 0.1; Binding of a rabbit serum to looped/cyclic peptides of protein N of SARS-CoV Urbani (Rabbit serum looped peptides) [3]: 0.1 |
